US5639873A, “Oligothionucleotides” (Centre National de la Recherche Scientifique (CNRS), priority 1992, dated 1997)
“Also recorded” adds a separate entry of the source.

Legend:
[1] = system: 5'-exonuclease calf spleen phosphodiesterase; experiment: Enzymatic degradation of hexamers by 5'-exonuclease calf spleen phosphodiesterase; type: in vitro ADME
From the text: (§1) Study of the substrate-type activities of hexamers 4'-SrU6, 4'-SrU6 -3'n-prOH compared with the substrate characteristics of the hexamers βrU6 and αrU6 in relation to various purified nucleases.
Calf spleen phosphodiesterase (CSP) is a 5'-exonuclease which degrades the oligonucleotides from their 5' end and liberates nucleotides 3'-phosphates.
(§2) These four enzymes were obtained from Boehringer Mannheim.
(§3) Generally, one optical density unit at 260 nm of each hexamer is brought into contact with a certain concentration of the enzyme considered and is then diluted in a sufficient quantity for 1000 μl of enzymatic digestion buffer.
(§4) Various digestion buffers were used depending on the nature of the enzyme (Table 9).
(§5) The stock sample is divided into 10 fractions of 100 μl before being frozen at -18° C.
(§6) One aliquot fraction of 100 μl is collected and incubated in a dry oven thermostated at 37° C. for a time t and is then analyzed by analytical HPLC.
(§7) The study of the surface area of the signal corresponding to the hexamer makes it possible to measure a kinetics of degradation whose half-life period is calculated (Table 10).

Ribonuclease A = experiment: Enzymatic degradation of hexamers by ribonuclease A; type: in vitro ADME
Protocol: as §1
Ribobuclease A degrades an oligoribonucleotide after the pyrimidine residues.
as §2, §3, §4, §5, §6, §7

[2] = system: 3'-exonuclease snake venom phosphodiesterase; type: in vitro ADME
From the text: as §1
Snake venom phosphodiesterase (VSP) is a 3'-exonuclease-3' which liberates nucleotides 5'-phosphate after degrading the oligomer by its 3' end.
as §2, §3, §4, §5, §6, §7

Endonuclease S1 = experiment: Enzymatic degradation of hexamers by endonuclease S1; type: in vitro ADME
From the text: as §1
Endonuclease S1, specific for the single DNA strand hydrolyzes the phosphodiester bonds in a random manner.
as §2, §3, §4, §5, §6, §7

βSrU12 (SEQ ID NO: 5) = experiment: Self-hybridization of the oligomer βSrU12; type: binding; settings: 1M and 0.1M NaCl
Protocol: For that, an experiment for self-hybridization of the dodecamer βSrU12 (SEQ ID NO: 5) was carried out at two NaCl concentrations (1M and 0.1M). […] No point of inflection can be visualized on such a straight line.
The hybridization experiments were carried out with a UVIKON 810 spectrophotometer (KONTRON), coupled to an IBM-compatible microcomputer. The temperature is controlled by a HUBER PD 415 temperature programmer connected to a thermostated bath (HUMER […]). The UV cuvettes are made from quartz of 1 cm in length and a continous circulation of nitrogen is used for temperatures of less than 20° C. Before the experiment, 3 μM (Examples 1 to V) or 10 μM (Examples VI and VII) of complementary oligomers are brought into contact in a sufficient quantity for 1000 μl of 1M NaCl and 10 mM sodium cacodylate buffer, adjusted to pH 7 (Examples I to VII). This mixture is heated at 80° C. for 1 hour, and then cooled to -20° C. according to a temperature gradient of 0.5° C. per minute. The absorbance and temperature values are collected every 30 seconds.
(§8) The same experiment is carried out using a sufficient quantity for 1000 μl of 0.1M NaCl, 10 mM sodium cacodylate hybridization buffer adjusted to pH 7 in order to evaluate the thermal stability of the duplex in this buffer which favors the pairings less.
Concentration of βrU12 (SEQ ID NO: 5)=0.351 mM […]

[3] = system: βdC2 A12 C2 (SEQ ID NO: 4); experiment: Melting of duplexes with βdC2 A12 C2 (UV spectrophotometry, melting temperature); type: binding; settings: for Melting temperature (Tm): 10 mM sodium cacodylate, pH 7; for Tm: Table 7, duplex with d(C2 A12 C2), 3 μM
From the text: (§9) UV spectrophotometry makes it possible to study the nucleic acids and to detect the formation of duplex, the melting temperature being one of the characteristics of a duplex. The stacking and pairing of the bases of the nucleic acids are accompanied by a decrease in the UV absorbtion (hypochromicity). […] The point of inflection of the curve, of sygmoidal shape, of the variation of the absorbance as as function of temperature is called melting temperature or Tm and corresponds to the co-existence of separate strands and paired strands in a 50/50 ratio.
(§10) Analysis of the melting curves for the β-4'-thiooligoribonucleotide/β-oligodeoxyribonucleotide and β-4'-thiooligoribonucleotide/β-oligoribonucleotide duplexes will make it possible to define the thermal stability of such duplexes by the measurement of the melting temperature. These hybridization experiments are carried out preserving a 1/1 stoichiometry between the two complementary strands, in the presence of a 1M NaCl, 10 mM sodium cacodylate buffer. A high NaCl concentration indeed favors the pairings by solvating the negative charges around the phosphorus atoms of the two oligonucleotides. We therefore carried out these hybridization experiments in a 0.1M NaCl, 10 mM sodium cacodylate buffer.
(§11) In order to carry out the hybridization experiment, it is necessary to know the concentration of each oligomer in order to preserve the 1:1 stoichiometry between the two complementary strands. According to the BEER-LAMBERT law A=ε1c, the absorbances of the oligomers were measured at 80° C. in order to remove the phenomenon of stacking of the bases creating a disturbance in the hyperchromicity due to the existence of tertiary structures.
(§12) The hybridization experiments were carried out with a UVIKON 810 spectrophotometer (KONTRON), coupled to an IBM-compatible microcomputer. […] The UV cuvettes are made from quartz of 1 cm in length and a continous circulation of nitrogen is used for temperatures of less than 20° C. […] This mixture is heated at 80° C. for 1 hour, and then cooled to -20° C. according to a temperature gradient of 0.5° C. per minute. The absorbance and temperature values are collected every 30 seconds.
as §8
(§13) The hybridization experiments were carried out preserving the 1/1 stoichiometry between the two complementary strands in the presence of a 1M NaCl, 10 mM sodium cacodylate buffer. A high NaCl concentration indeed favors the pairings by solvating the negative charges around the phosphorus atoms of the two oligonucleotides. We carried out these hybridization experiments in another buffer 0.1M NaCl, 10 mM sodium cacodylate.
as §11, with “experiments,” for “experiment,”
as §12

polyrA = experiment: Melting of duplexes with polyrA (UV spectrophotometry, melting temperature); type: binding; settings: for Melting temperature (Tm) / hypochromicity: Table 4, 3 μM of each oligomer; for Melting temperature (Tm): 10 mM sodium cacodylate, pH 7; for thermal stability with complementary RNA (in words): complementary RNA sequences; for Tm: Table 7, duplex with poly rA, 3 μM
From the text: as §9, §10, §11, §12, §8, §13
as §11, with “experiments,” for “experiment,”
as §12

[4] = system: calf spleen phosphodiesterase; experiment: Enzymatic degradation of the dodecamers by calf spleen phosphodiesterase; type: in vitro ADME; settings: for Degradation in 0 min / Degradation in 25 min: Table 8
From the text: Study of the enzymatic degradation of the dodecamer β(SrT)dT11 (SEQ ID NO: 3) by calf spleen phosphodiesterase. Calf spleen phosphodiesterase is an exonuclease which degrades the oligomers from their free 5' ends, thus liberating nucleotides 3' phosphate.
This study will allow us to evaluate the resistance to enzymatic degradation induced by the presence in the 5' position of a 4'-thionucleotide unit in the oligomer β(SrT)dT11 (SEQ ID NO: 3) compared to the enzymatic degradation of the oxygenated natural homolog βdT12 (SEQ ID NO: 3). The comparative stability of the two dodecamers βdT12 (SEQ ID NO: 3) and β(SrT)dT11 (SEQ ID NO: 3) towards hydrolysis by calf spleen phosphodiesterase is presented in Table 8.
The variation over time of the enzymatic degradation of the two dodecamers was monitored by HPLC. We were able to plot the curve for enzymatic digestion of β(SrT)dT11 (SEQ ID NO: 3) as a function of time: A=A0 e^-kt (FIG. 2, A) where:
A0 is the initial surface area of the 12-mer
A is the surface area of the 12-met at the instant t
k is the first order rate constant for the degradation
An oligonucleotide solution (20 μl, 3 absorbance units at 260 nm) is diluted in 0.125M ammmonium acetate buffer (pH 7.0), 2.5 mM EDTA and 0.065% Tween 80 (80 μL). A commercial solution of calf spleen phosphodisesterase (2 μl, final concentration 0.008 unit/ml) is added and the mixture is incubated at 37° C. At determined times, aliquot fractions are collected (5 μl), heated at 100° C. for one minute and analyzed by HPLC.
The analyses were carried out on an PVDI (Polyvinylimidazole SFCC-Shandon) column protected by a precolumn and a prefilter. The elution is carried out based on a linear gradient over 20 minutes from 0.1M to 0.4M KCl in 20 mM KH2 PO4 at pH 6 containing 20% acetonitrile. The flow rate was fixed at 1 ml/min and the UV detection at 260 nm.

[5] = Table 5, 0.1M NaCl, 3 μM of each oligomer
[6] = Table 5, 1M NaCl, 3 μM of each oligomer
[7] = Table 6, 1M NaCl, 10 μM of each oligomer

## 4'-Sr-(U-U-U-U-U-U) [βSrU6]
[1]; CSP
  enzymatic resistance compared with βrU6 (in words): high enzymatic resistance
[1]; Table 10, CSP 13 × 10^-3 units/ml, pH 7, 37° C.
  Half-life period: 65 h
Ribonuclease A; RNase-A
  enzymatic resistance compared with βrU6 (in words): high enzymatic resistance
Ribonuclease A; Table 10, RNAse A 2 × 10^-2 units/ml, pH 7.4, 37° C.
  Half-life period: 11.2 h
[2]; Table 10, VSP 6 × 10^-4 units/ml, pH 9.4, 37° C.
  Half-life period: 1.27 h
[2]; VSP
  enzymatic resistance compared with βrU6 (in words): high enzymatic resistance
Endonuclease S1; S1
  enzymatic resistance compared with βrU6 (in words): high enzymatic resistance
Endonuclease S1; Table 10, S1 20 units/ml, pH 4.7, 37° C.
  Half-life period: 15.5 h

## βSrU12: homododecamer 4'-thio-β-D-ribonucleotide (βrSU12)
βSrU12 (SEQ ID NO: 5)
  self-hybridization (in words): does not self-pair; also recorded: no self-hybridization
[3]; [5]
  Melting temperature (Tm): 5 °C
  hypochromicity: 5.6%
[3]; [6]
  Melting temperature (Tm): 27 °C
  hypochromicity: 9.3%
polyrA; 0.1M NaCl
  Melting temperature (Tm): 33 °C
  hypochromicity: 25%
polyrA; 1M NaCl
  Melting temperature (Tm): 46 °C
  hypochromicity: 25%
polyrA
  thermal stability with complementary RNA (in words): good thermal stability

## 4'-SrU3 -dT6 -4'-SrU3 /P11 (UUUTTTTTTUUU; 4'-thioribouridine units) [compound 4, mixed dodecamer with phosphodiester bonds]
[3]; 0.1 M NaCl
  Tm: 10 °C
[3]; 1 M NaCl
  Tm: 31 °C
[3]; with d(C2 A12 C2)
  Tm values compared with those of βrSU12 (in words): equivalent
polyrA; 0.1 M NaCl
  Tm: 32 °C
polyrA; 1 M NaCl
  Tm: 45 °C
polyrA
  thermal stability with complementary RNA (in words): good thermal stability
polyrA; with poly rA
  Tm values compared with those of βrSU12 (in words): equivalent

## βdT5 (SrT)dT6: dodecamer βdT5 (SrT) dT6
[3]; 1M NaCl, 10 μM, versus βdT12/βdC2 A12 C2
  difference in Tm (modified duplex lower than natural duplex): 5 °C
[3]; [7]
  Melting temperature (Tm): 40 °C
  hypochromicity: 18%

## β(SrT)dT11: dodecamer with a 4'-thionucleotide unit in the 5' position (TTTTTTTTTTTT; 5' 4'-thionucleotide unit)
[4]; FIG. 2, 37° C., 0.008 unit/ml
  first order rate constant for the degradation (k): 0.016 min⁻¹
  half-life period (t1/2): 0.717 h
[4]; 37° C., 0.008 unit/ml
  Degradation in 0 min: 0%
  Degradation in 25 min: 23%
[4]; degradation by the 5' end
  half-life period compared with that of βSrU12 (in words): substantially greater

## 4'-SrU3 -dT6 -4'-SrU3 /P3 PS5 P3 (UUUTTTTTTUUU; 4'-thioribouridine units; phosphorothioate bonds) [compound 5, mixed dodecamer containing both phosphodiester and phosphorothioate bonds]
[3]; 0.1 M NaCl
  Tm: 3 °C
[3]; 1 M NaCl
  Tm: 19 °C
polyrA; 0.1 M NaCl
  Tm: 24 °C
polyrA; 1 M NaCl
  Tm: 36 °C
polyrA
  thermal stability with complementary RNA (in words): good thermal stability
polyrA; with poly rA and d(C2 A12 C2), versus phosphodiester oligomer 4
  decrease in the Tm value per phosphorothioate linkage: about 2 °C

## βdT12: oxygenated natural homolog βdT12 [reference compound]
[4]; FIG. 2, 37° C., 0.008 unit/ml
  half-life period (t1/2): 0.017 h
[4]; 37° C., 0.008 unit/ml
  Degradation in 0 min: 0%
  Degradation in 25 min: 93%
[3]; [7]
  Melting temperature (Tm): 45 °C
  hypochromicity: 20.5%
